In one data set the target is T1, VBC (Homo sapiens, UniProt P40337+Q15369+Q15370).
T1 construct: made in house; host or cells: E. coli BL21(DE3)
Nature of the data set: Biolayer interferometry (BLI) binding of peptides to immobilised VBC. How it is done:
Biolayer interferometry: BLI experiments were performed in an Octet RED384 (FòrteBio). Biotinylated VBC (25 μg mL^−1) was immobilized on Super Streptavidin‐coated biosensor (FòrteBio). The experiments were conducted at 25 °C, in 20 mM HEPES pH 7.6, 100 mM NaCl, 1 mM DTT and 0.02 % (v/v) Tween‐20 buffer. The response of the reference tips was subtracted from the signal to account for unspecific binding. The data points were fitted using a 1:1 model. […]
peptides. Biotinylated VBC was immobilised on the tips and the peptides were tested in a concentration range from 27 µM to 7 mM. The different colours represent the different concentrations and corresponding responses. The assay was performed […]
Figure S2 – Biolayer interferomery experiments with the alanine scan peptides.
Biotinylated VBC was immobilised on the tips and the peptides were tested in a concentration range from 27 µM to 7 mM. The different colours represent the different concentrations and corresponding responses. The assay was performed in […]
leucine replacement versus VBC tested on a concentration-dependent assay. […]
A general note: Biolayer interferometry detects binding as a change in optical thickness at a sensor tip.

Data set [1] concerns the target T2, native interaction between VBC and Cul2 (Homo sapiens, UniProt P40337+Q15369+Q15370).
T2 construct: made in house; host or cells: E. coli BL21(DE3) for VBC
Nature of the data set: AlphaLISA competition assay to displace Cul2 from VBC. The note with it: V6×HisBC 500 nM, biotinylated Rbx1-Cul2 150 nM. The format is binding. How it is done:
AlphaLISA: Anti‐His6 acceptor beads and Streptavidin donor beads (PerkinElmer) were used. […] The final volume of each well was 20 μL. The plate was then read in a PHERAstar FS (BMG LABTECH). Each of the competitors was titrated in quadruplicate. The fitting and IC50 determination were performed in GraphPad Prism 7 (GraphPad Software, La Jolla, CA, USA).
In general terms: Alpha assays give light when donor and acceptor beads are brought close together.

Data set [2] can be described thus: Precipitation of peptides in the conditions of the BLI experiment. The note with it: 20 mM HEPES pH 7.6, 100 mM NaCl, 1 mM DTT, 0.02 % Tween-20, 25 °C; visual. It is filed as physicochemical. How it is done:
Based on the structural analysis of the Cul2‐VBC interface, we first aimed to recapitulate the interaction using N‐terminal Cul2 peptides varying from three to eleven residues. […] Thus, the next step was to enhance the binding affinity of the peptides toward VBC.
Biolayer interferometry: BLI experiments were performed in an Octet RED384 (FòrteBio). Biotinylated VBC (25 μg mL^−1) was immobilized on Super Streptavidin‐coated biosensor (FòrteBio). The experiments were conducted at 25 °C, in 20 mM HEPES pH 7.6, 100 mM NaCl, 1 mM DTT and 0.02 % (v/v) Tween‐20 buffer. The response of the reference tips was subtracted from the signal to account for unspecific binding. The data points were fitted using a 1:1 model.

Setting [3] is: 8-mer peptide variants replacing Leu3, BLI, biotinylated VBC on Super Streptavidin biosensor, peptides 27 µM to 7 mM, 20 mM HEPES pH 7.6, 100 mM NaCl, 1 mM DTT, 0.02% Tween-20, 25 °C, 1:1 model, read-out: K d.

Read-outs that look alike come from different tables or passages of the source. Square brackets hold non-standard residues; d marks the D form. Ends that are not written are not given here. Peptide text beside a SMILES is read from it. Chg = N[C@H](C(=O)O)C1CCCCC1; Pen = CC(C)(S)[C@H](N)C(=O)O; Phg = N[C@H](C(=O)O)c1ccccc1; Tle = CC(C)(C)[C@H](N)C(=O)O; Nva = CCC[C@H](N)C(=O)O

Regarding `CCC[C@H](NC(=O)[C@H](CO)NC(=O)[C@@H](N)CCSC)C(=O)N[C@@H](CCCCN)C(=O)N1CCC[C@H]1C(=O)N[C@@H](CCCNC(=N)N)C(=O)N[C@H](C(=O)N[C@H](C(N)=O)C(C)C)C(C)C` [F] (H-MS[Nva]KPRVV-NH2), the Kd on VBC (setting [3]) was 1900 ± 200 µM.

As to `CSCC[C@H](N)C(=O)N[C@@H](CO)C(=O)N[C@H](C(=O)N[C@@H](CCCCN)C(=O)N1CCC[C@H]1C(=O)N[C@@H](CCCNC(=N)N)C(=O)N[C@H](C(=O)N[C@H](C(N)=O)C(C)C)C(C)C)C(C)(C)C` [G] (H-MS[Tle]KPRVV-NH2), the Kd on VBC (setting [3]) was 900 ± 100 µM.

For `CSCC[C@H](N)C(=O)N[C@@H](CO)C(=O)N[C@H](C(=O)N[C@@H](CCCCN)C(=O)N1CCC[C@H]1C(=O)N[C@@H](CCCNC(=N)N)C(=O)N[C@H](C(=O)N[C@H](C(N)=O)C(C)C)C(C)C)c1ccccc1` [H] (H-MS[Phg]KPRVV-NH2), the Kd at VBC (setting [3]) was 2100 ± 600 µM. On the same count and under the same terms, next, `CSCC[C@H](N)C(=O)N[C@@H](CO)C(=O)N[C@H](C(=O)N[C@@H](CCCCN)C(=O)N1CCC[C@H]1C(=O)N[C@@H](CCCNC(=N)N)C(=O)N[C@H](C(=O)N[C@H](C(N)=O)C(C)C)C(C)C)C1CCCCC1` [I] (H-MS[Chg]KPRVV-NH2): 8900 ± 700 µM.

Regarding `CSCC[C@H](N)C(=O)N[C@@H](CO)C(=O)N[C@H](C(=O)N[C@@H](CCCCN)C(=O)N1CCC[C@H]1C(=O)N[C@@H](CCCNC(=N)N)C(=O)N[C@H](C(=O)N[C@H](C(N)=O)C(C)C)C(C)C)C(C)(C)S` [Peptide J] (H-MS[Pen]KPRVV-NH2), the “Displacement of Cul2 from VBC in AlphaLISA (in words)” value in data set [1] is recorded as “displace Cul2”. For the compound MSFKPRVV-NH2 [C], on VBC (setting [3]), the Kd came to 3100 ± 200 µM. Consider MSLKPRAV-NH2, for which the Kd on VBC was determined as 2100 ± 600 µM. On to MSLKPRVVD [9‐mer], for which the “Precipitation in the conditions of the BLI experiment (in words)” value in data set [2] is given as “formed a white precipitate”. Still for that read-out and setting: to MSLKPRVVDFD [11‐mer] belongs “formed a white precipitate”. For the compound MSYKPRVV-NH2 [D], the Kd on VBC (setting [3]) amounted to 7400 ± 400 µM.
